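Tested at 5 concentrations; 48 h exposure; 96-well plates; endpoints linearly interpolated, else capped at highest concentration. TGI denotes the concentration required for complete inhibition of growth.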
Legend:
Assay in all cases: NCI-60 cell line screen, 48 h
K-562 leukemia = system: K-562 leukemia
UO-31 renal = system: UO-31 renal
SW-620 colon = system: SW-620 colon
A549 NSCLC = system: A549 NSCLC
SNB-19 CNS = system: SNB-19 CNS
T-47D breast = system: T-47D breast
SK-MEL-28 melanoma = system: SK-MEL-28 melanoma
OVCAR-5 ovarian = system: OVCAR-5 ovarian
786-0 renal = system: 786-0 renal
SN12C renal = system: SN12C renal
OVCAR-8 ovarian = system: OVCAR-8 ovarian
MDA-N = system: MDA-N
MDA-MB-231 breast = system: MDA-MB-231 breast
U251 CNS = system: U251 CNS
BT-549 breast = system: BT-549 breast
TK-10 renal = system: TK-10 renal
EKVX NSCLC = system: EKVX NSCLC
IGROV1 ovarian = system: IGROV1 ovarian
RXF 393 renal = system: RXF 393 renal
HOP-62 NSCLC = system: HOP-62 NSCLC
NCI-H522 lung = system: NCI-H522 lung
KM12 colon = system: KM12 colon
OVCAR-3 ovarian = system: OVCAR-3 ovarian
DU-145 prostate = system: DU-145 prostate
NCI-H23 lung = system: NCI-H23 lung
UACC-257 melanoma = system: UACC-257 melanoma
SK-OV-3 ovarian = system: SK-OV-3 ovarian
UACC-62 melanoma = system: UACC-62 melanoma
ACHN renal = system: ACHN renal
HT29 colon = system: HT29 colon
PC-3 prostate = system: PC-3 prostate
SF-295 CNS = system: SF-295 CNS
M14 melanoma = system: M14 melanoma
HS 578T breast = system: HS 578T breast
HCC-2998 colon = system: HCC-2998 colon
HCT-15 colon = system: HCT-15 colon
NCI-H460 lung = system: NCI-H460 lung
NCI/ADR-RES ovarian = system: NCI/ADR-RES ovarian
SK-MEL-5 melanoma = system: SK-MEL-5 melanoma
OVCAR-4 ovarian = system: OVCAR-4 ovarian
HL-60(TB) leukemia = system: HL-60(TB) leukemia
SF-268 CNS = system: SF-268 CNS
MDA-MB-435 = system: MDA-MB-435
HCT-116 colon = system: HCT-116 colon
CCRF-CEM leukemia = system: CCRF-CEM leukemia
COLO 205 colon = system: COLO 205 colon
MCF7 breast = system: MCF7 breast
SR leukemia = system: SR leukemia
CAKI-1 renal = system: CAKI-1 renal
MALME-3M melanoma = system: MALME-3M melanoma
HOP-92 NSCLC = system: HOP-92 NSCLC
SF-539 CNS = system: SF-539 CNS
RPMI-8226 leukemia = system: RPMI-8226 leukemia
LOX IMVI melanoma = system: LOX IMVI melanoma
MOLT-4 leukemia = system: MOLT-4 leukemia
A498 renal = system: A498 renal
SK-MEL-2 melanoma = system: SK-MEL-2 melanoma
SNB-75 CNS = system: SNB-75 CNS

With COC(=O)C([C@H](NC1(c2ccccc2)c2ccccc2-c2ccccc21)C(=O)OC)N(NC(=O)OCc1ccccc1)C(=O)OCc1ccccc1 (mixture of isomers) the TGI (K-562 leukemia) was > 100 µM, the TGI (UO-31 renal) was > 100 µM and the TGI (SW-620 colon) was > 100 µM. For the same compound, the TGI (A549 NSCLC) was > 100 µM, the TGI (SNB-19 CNS) was > 100 µM and the TGI (T-47D breast) was > 100 µM. The TGI (SK-MEL-28 melanoma) was > 100 µM, the TGI (OVCAR-5 ovarian) was > 100 µM and the TGI (786-0 renal) was > 100 µM. For the same compound, the TGI (SN12C renal) was > 100 µM, the TGI (OVCAR-8 ovarian) was > 100 µM and the TGI (MDA-N) was > 100 µM. For the same compound, the TGI (MDA-MB-231 breast) was > 100 µM, the TGI (U251 CNS) was > 100 µM and the TGI (BT-549 breast) was > 100 µM. The TGI (TK-10 renal) was > 100 µM, the TGI (EKVX NSCLC) was > 100 µM and the TGI (IGROV1 ovarian) was > 100 µM. The TGI (RXF 393 renal) was > 100 µM, the TGI (HOP-62 NSCLC) was > 100 µM and the TGI (NCI-H522 lung) was > 100 µM. The TGI (KM12 colon) was > 100 µM, the TGI (OVCAR-3 ovarian) was > 100 µM and the TGI (DU-145 prostate) was > 100 µM. The TGI (NCI-H23 lung) was > 100 µM, the TGI (UACC-257 melanoma) was > 100 µM and the TGI (SK-OV-3 ovarian) was > 100 µM. The TGI (UACC-62 melanoma) was > 100 µM, the TGI (ACHN renal) was > 100 µM and the TGI (HT29 colon) was > 100 µM. For the same compound, the TGI (PC-3 prostate) was > 100 µM, the TGI (SF-295 CNS) was > 100 µM and the TGI (M14 melanoma) was > 100 µM. For the same compound, the TGI (HS 578T breast) was > 100 µM, the TGI (HCC-2998 colon) was > 100 µM and the TGI (HCT-15 colon) was > 100 µM. For the same compound, the TGI (NCI-H460 lung) was > 100 µM, the TGI (NCI/ADR-RES ovarian) was > 100 µM and the TGI (SK-MEL-5 melanoma) was > 100 µM. For the same compound, the TGI (OVCAR-4 ovarian) was > 100 µM, the TGI (HL-60(TB) leukemia) was > 100 µM and the TGI (SF-268 CNS) was > 100 µM. For the same compound, the TGI (MDA-MB-435) was > 100 µM, the TGI (HCT-116 colon) was > 100 µM and the TGI (CCRF-CEM leukemia) was > 100 µM. The TGI (COLO 205 colon) was > 100 µM, the TGI (MCF7 breast) was > 100 µM and the TGI (SR leukemia) was > 100 µM. For the same compound, the TGI (CAKI-1 renal) was > 100 µM, the TGI (MALME-3M melanoma) was > 100 µM and the TGI (HOP-92 NSCLC) was > 100 µM. For the same compound, the TGI (SF-539 CNS) was > 100 µM, the TGI (RPMI-8226 leukemia) was > 100 µM and the TGI (LOX IMVI melanoma) was > 100 µM. The TGI (MOLT-4 leukemia) was > 100 µM, the TGI (A498 renal) was > 100 µM and the TGI (SK-MEL-2 melanoma) was > 100 µM.
With Cc1nc2n(c1/C=C1/C(=O)Nc3cccc(Cl)c31)CCS2 the TGI (K-562 leukemia) was > 100 µM, the TGI (UO-31 renal) was > 100 µM and the TGI (SW-620 colon) was > 100 µM. The TGI (A549 NSCLC) was > 100 µM, the TGI (SNB-19 CNS) was 62.5 µM and the TGI (T-47D breast) was 54.9 µM. The TGI (SK-MEL-28 melanoma) was > 100 µM, the TGI (OVCAR-5 ovarian) was > 100 µM and the TGI (786-0 renal) was > 100 µM. For the same compound, the TGI (SN12C renal) was > 100 µM, the TGI (OVCAR-8 ovarian) was 88.4 µM and the TGI (MDA-N) was > 100 µM. The TGI (MDA-MB-231 breast) was 52.5 µM, the TGI (U251 CNS) was 34.7 µM and the TGI (BT-549 breast) was 98.7 µM. The TGI (TK-10 renal) was > 100 µM, the TGI (EKVX NSCLC) was > 100 µM and the TGI (IGROV1 ovarian) was > 100 µM. The TGI (RXF 393 renal) was 50.6 µM, the TGI (HOP-62 NSCLC) was 74.1 µM and the TGI (NCI-H522 lung) was > 100 µM. The TGI (KM12 colon) was > 100 µM, the TGI (SNB-75 CNS) was 37.5 µM and the TGI (OVCAR-3 ovarian) was > 100 µM. The TGI (DU-145 prostate) was > 100 µM, the TGI (NCI-H23 lung) was > 100 µM and the TGI (UACC-257 melanoma) was > 100 µM. For the same compound, the TGI (SK-OV-3 ovarian) was 35.1 µM, the TGI (UACC-62 melanoma) was > 100 µM and the TGI (ACHN renal) was > 100 µM. The TGI (HT29 colon) was > 100 µM, the TGI (PC-3 prostate) was > 100 µM and the TGI (SF-295 CNS) was > 100 µM. The TGI (M14 melanoma) was > 100 µM, the TGI (HS 578T breast) was 53.9 µM and the TGI (HCC-2998 colon) was > 100 µM. For the same compound, the TGI (HCT-15 colon) was > 100 µM, the TGI (NCI-H460 lung) was > 100 µM and the TGI (NCI/ADR-RES ovarian) was > 100 µM. The TGI (SK-MEL-5 melanoma) was > 100 µM, the TGI (HL-60(TB) leukemia) was > 100 µM and the TGI (SF-268 CNS) was 52.1 µM. The TGI (MDA-MB-435) was > 100 µM, the TGI (HCT-116 colon) was > 100 µM and the TGI (CCRF-CEM leukemia) was > 100 µM. The TGI (COLO 205 colon) was > 100 µM, the TGI (MCF7 breast) was > 100 µM and the TGI (SR leukemia) was > 100 µM. The TGI (CAKI-1 renal) was > 100 µM, the TGI (MALME-3M melanoma) was > 100 µM and the TGI (HOP-92 NSCLC) was 66.8 µM. The TGI (SF-539 CNS) was 35.2 µM, the TGI (RPMI-8226 leukemia) was > 100 µM and the TGI (LOX IMVI melanoma) was > 100 µM. For the same compound, the TGI (MOLT-4 leukemia) was > 100 µM, the TGI (A498 renal) was > 100 µM and the TGI (SK-MEL-2 melanoma) was 51.8 µM.

Source: PubChem BioAssay (NCI)
